This note sets out measurements from US12545640B2, “Substituted 6,7-dihydro-5H-benzo[7]annulene compounds, processes for their preparation and therapeutic uses thereof” (SANOFI, priority 2019, dated 2026).

Structures are written as SMILES.

The first experiment addresses T1, ERα (Homo sapiens, UniProt P03372).
T1 construct: host or cells: MCF7 cells
T1 sequence (P03372 1-595): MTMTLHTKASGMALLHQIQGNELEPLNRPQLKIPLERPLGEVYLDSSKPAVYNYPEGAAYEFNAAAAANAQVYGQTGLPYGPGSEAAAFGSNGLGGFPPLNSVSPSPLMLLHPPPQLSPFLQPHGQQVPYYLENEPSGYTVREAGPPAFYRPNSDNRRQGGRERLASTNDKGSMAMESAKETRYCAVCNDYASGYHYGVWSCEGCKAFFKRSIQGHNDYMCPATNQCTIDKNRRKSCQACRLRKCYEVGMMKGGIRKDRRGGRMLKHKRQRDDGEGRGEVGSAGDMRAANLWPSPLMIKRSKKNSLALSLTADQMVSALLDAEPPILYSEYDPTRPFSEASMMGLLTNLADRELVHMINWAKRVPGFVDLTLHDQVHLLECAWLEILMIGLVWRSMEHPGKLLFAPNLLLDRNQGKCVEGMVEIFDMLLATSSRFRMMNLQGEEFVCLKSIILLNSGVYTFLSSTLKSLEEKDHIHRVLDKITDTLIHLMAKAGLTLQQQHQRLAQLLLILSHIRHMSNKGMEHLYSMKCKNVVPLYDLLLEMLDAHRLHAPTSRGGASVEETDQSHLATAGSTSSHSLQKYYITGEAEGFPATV
Nature of the experiment: Estrogen receptor degradation activity: breast cancer cell ERα in cell western assay (MCF7 cells). Type of experiment: cell-based. The settings on record: 4 hours, final concentrations ranging from 0.3-0.0000018 μM, relative to fulvestrant 0.1 μM positive control. Here is the method: Test: Estrogen Receptor Degradation Activity
Said test involves measuring the in vitro degradation activity of the compounds of the invention.
The measurements of the degradation activities were made using a breast cancer cell ERα in cell western assay as described hereunder.
MCF7 cells (ATCC) were seeded in 384 wells microplate (collagen coated) at a concentration of 10000 cells/30 μL, per well in red phenol free MEM alpha medium (invitrogen) containing 5% charcoal dextran striped FBS. The following day, 9 points serial 1:5 dilution of each compound was added to the cells in 2.5 μL at final concentrations ranging either from 3-0.000018 μM (column «% Degradation at 3 μM in table 2) or from 0.3-0.0000018 μM (column «% Degradation at 0.3 μM in table 2), or 0.1 μM for fulvestrant (using as positive control). At 4 hours post compound addition the cells were fixed by adding 25 μL of formalin (final concentration 5% formalin containing 0.1% triton) for 10 minutes at room temperature and then washed twice with PBS. Then, 50 μL of LI-COR blocking buffer containing 0.1% Triton was added to plate for 30 minutes at room temperature. LI-COR blocking buffer was removed and cells were incubated overnight at cold room with 50 μL anti-ER rabbit monoclonal antibody (Thermo scientific MA1-39540) diluted at 1:1000 in LI-COR blocking buffer containing 0.1% tween-20. Wells which were treated with blocking buffer but no antibody were used as background control. Wells were washed twice with PBS (0.1% tween-20) and incubated at 37° C. for 60 minutes in LI-COR (0.1% tween-20) containing goat anti-rabbit antibody Alexa 488 (1:1000) and Syto-64 a DNA dye ([…]). Cells were then washed 3 times in PBS and scanned in ACUMEN explorer (TTP-Labtech). Integrated intensities in the green fluorescence and red fluorescence were measured to determine the levels of ERα and DNA respectively.
As for `CS(=O)(=O)Nc1ccc2c(c1)CCCC(c1cccc(F)c1Cl)=C2c1ccc(O[C@H]2CCN(CCCF)C2)cc1` [Example 90, (S)—N-(8-(2-chloro-3-fluorophenyl)-9-(4-((1-(3-fluoropropyl)pyrrolidin-3-yl)oxy)phenyl)-6,7-dihydro-5H-benzo[7]annulen-3-yl)methanesulfonamide], the “% Degradation At 0.3 μM” value is given as 77%.

As for `O=C(Nc1ccc2c(c1)CCCC(c1ccc(Cl)cc1Cl)=C2c1ccc(O[C@H]2CCN(CCCF)C2)cc1)C1(O)CC1.O=CO` [Example 84, (S)—N-(8-(2,4-dichlorophenyl)-9-(4-((1-(3-fluoropropyl)pyrrolidin-3-yl)oxy)phenyl)-6,7-dihydro-5H-benzo[7]annulen-3-yl)-1-hydroxycyclopropane-1-carboxamide formate], the “% Degradation At 0.3 μM” value amounted to 71%.

Staying with this experiment, now noted: 4 hours, final concentrations ranging from 3-0.000018 μM, relative to fulvestrant 0.1 μM positive control.
With `CC(=O)Nc1ccc2c(c1)CCCC(c1ccc(Cl)cc1Cl)=C2c1ccc(O[C@H]2CCN(CCCF)C2)cc1` [Example 48, (S)—N-(8-(2,4-dichlorophenyl)-9-(4-((1-(3-fluoropropyl)pyrrolidin-3-yl)oxy)phenyl)-6,7-dihydro-5H-benzo[7]annulen-3-yl)acetamide], the “% Degradation At 3 μM” value worked out at 70%.

For the compound `NC(=O)c1ccc2c(c1)CCCC(c1ccc(Cl)cc1Cl)=C2c1ccc(O[C@H]2CCN(CCCF)C2)cc1` [Example 3, (S)-8-(2,4-dichlorophenyl)-9-(4-((1-(3-fluoropropyl)pyrrolidin-3-yl)oxy)phenyl)-6,7-dihydro-5H-benzo[7]annulene-3-carboxamide], the “% Degradation At 3 μM” value amounted to 95%.

For the compound `O=C1CCCN1c1ccc2c(c1)CCCC(c1ccc(Cl)cc1Cl)=C2c1ccc(O[C@H]2CCN(CCCF)C2)cc1` [Example 58, (S)-1-(8-(2,4-dichlorophenyl)-9-(4-((1-(3-fluoropropyl)pyrrolidin-3-yl)oxy)phenyl)-6,7-dihydro-5H-benzo[7]annulen-3-yl)pyrrolidin-2-one], the “% Degradation At 3 μM” value was determined as 77%.

As to `O=c1[nH]c(-c2ccc3c(c2)CCCC(c2ccc(Cl)cc2Cl)=C3c2ccc(O[C@H]3CCN(CCCF)C3)cc2)ns1` [Example 37, (S)-3-(8-(2,4-dichlorophenyl)-9-(4-((1-(3-fluoropropyl)pyrrolidin-3-yl)oxy)phenyl)-6,7-dihydro-5H-benzo[7]annulen-3-yl)-1,2,4-thiadiazol-5(4H)-one], the “% Degradation At 3 μM” value is given as 98%.

Take `COC(=O)Nc1ccc2c(c1)CCCC(c1ccc(Cl)cc1Cl)=C2c1ccc(O[C@H]2CCN(CCCF)C2)cc1` [Example 25, Methyl (S)-(8-(2,4-dichlorophenyl)-9-(4-((1-(3-fluoropropyl)pyrrolidin-3-yl)oxy)phenyl)-6,7-dihydro-5H-benzo[7]annulen-3-yl)carbamate]: the “% Degradation At 3 μM” value came to 65%.

Regarding `CS(=O)(=O)NC(=O)c1ccc2c(c1)CCCC(c1ccc(Cl)cc1Cl)=C2c1ccc(O[C@H]2CCN(CCCF)C2)cc1` [Example 15, (S)-8-(2,4-dichlorophenyl)-9-(4-((1-(3-fluoropropyl)pyrrolidin-3-yl)oxy)phenyl)-(methylsulfonyl)-6,7-dihydro-5H-benzo[7]annulene-3-carboxamide], the “% Degradation At 3 μM” value is recorded as 90%.

As for `NNC(=O)c1ccc2c(c1)CCCC(c1ccc(Cl)cc1Cl)=C2c1ccc(O[C@H]2CCN(CCCF)C2)cc1` [Example 6, (S)-8-(2,4-dichlorophenyl)-9-(4-((1-(3-fluoropropyl)pyrrolidin-3-yl)oxy)phenyl)-6,7-dihydro-5H-benzo[7]annulene-3-carbohydrazide], the “% Degradation At 3 μM” value turned out to be 88%.

On to `Cl.O=S1NC(c2ccc3c(c2)CCCC(c2ccc(Cl)cc2Cl)=C3c2ccc(O[C@H]3CCN(CCCF)C3)cc2)=NO1` (stereo partly drawn) [Example 29, 4-(8-(2,4-dichlorophenyl)-9-(4-(((S)-1-(3-fluoropropyl)pyrrolidin-3-yl)oxy)phenyl)-6,7-dihydro-5H-benzo[7]annulen-3-yl)-3H-1,2,3,5-oxathiadiazole 2-oxide hydrochloride], for which the “% Degradation At 3 μM” value is reported as 91%.
